According to PubChem BioAssay AID743133 (The Scripps Research Institute Molecular Screening Center, 2013):

Target: Acyl-protein thioesterase 1 (Homo sapiens) + Acyl-protein thioesterase 2 (Homo sapiens) (UniProt O75608+O95372)
Assay: reversibility of LYPLA1/LYPLA2 inhibition after gel filtration, late-stage follow-up, mechanism study for LYPLA1/LYPLA2 inhibitor project, cell lysate, HeLa lysate, fluorescence gel ABPP (AID 743133)
Details: HeLa lysate gel-based ABPP, FP-Rh; for recovery after gel filtration: stronger effect = lower value; for inhibition: stronger effect = higher value

Chain of Acyl-protein thioesterase 1 (Homo sapiens) + Acyl-protein thioesterase 2 (Homo sapiens) (O75608 whole entry, looked up, one chain of several): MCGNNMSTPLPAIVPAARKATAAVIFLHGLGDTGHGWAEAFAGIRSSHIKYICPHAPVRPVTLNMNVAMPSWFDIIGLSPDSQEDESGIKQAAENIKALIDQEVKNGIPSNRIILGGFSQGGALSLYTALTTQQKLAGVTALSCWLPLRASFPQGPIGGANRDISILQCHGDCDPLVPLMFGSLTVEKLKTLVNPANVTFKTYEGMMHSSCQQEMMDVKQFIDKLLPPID

O=C(ON1C(=O)C2CN(C(=O)N3CCOCC3)CCN2C1=O)N1CCC(CCc2ccc(Cl)cc2)CC1 (stereo unspecified)
recovery after gel filtration (at 0.2 µM): 0%
inhibition (at 0.2 µM, post-gel filtration inhibition): 85%
inhibition (at 0.2 µM, pre-gel filtration inhibition): 85%
recovery after gel filtration (at 1 µM): 0%
inhibition (at 1 µM, post-gel filtration inhibition): 95%
inhibition (at 1 µM, pre-gel filtration inhibition): 95%
